Measurements: patent US7208502B2, “Methods of treating conditions associated with an Edg-3 receptor” (Maniv Energy Capital, priority 2002, dated 2007)
Entries after “also recorded” stand apart in the source; their conditions may differ.

Legend:
Edg-8 = biological target: T1, Edg-8 (Homo sapiens, UniProt Q9H228); experiment: Intracellular calcium assay, S1P-stimulated, HTC cells expressing Edg-8; format: cell-based; conditions: concentrations as high as 20 µM
T1 construct: expressed in transfected cells; host or cells: HTC rat hepatoma cells

Adrenergic β = experiment: Radioligand binding assay, 3H Dihydroaplenolol; set-up: species or system Wistar rat; conditions: 10 μM; significance criteria ≧50% of max stimulation or inhibition
Experimental: (§1) In order to test the selectivity of compounds, various enzyme assays as well as radioligand binding assays were performed using numerous non-Edg receptor targets as listed below.
(§2) A radioligand binding assay was performed using adrenergic α1 according to the method of Greengrass and Bremner 1979, Eur. J. Pharmacol. 55:323–326. A radioligand binding assay was performed using adrenergic α2 according to the method of Boyajian and Leslie, 1987, J. Pharmacol. Exp. Ther. 241:1092–1098. A radioligand binding assay was performed using adrenergic β according to the method of Feve et al., 1994, Proc. Natl. Acad. Sci. USA 91:5677–5681. A radioligand binding assay was performed using angiotensin AT2 according to the method of Whitebread et al., 1991, Biochem. Biophys. Res. Comm. 181:1365–1371. A radioligand binding assay was performed using calcium channel Type L, dihydropyridine according to the method of Ehlert et al., 1982, Life Sci. 30:2191–2202. A radioligand binding assay was performed using dopamine D2L according to the method of Bunzo et al., 1988, Nature 336:783–787. A radioligand binding assay was performed using endothelin ETA according to the method of Mihara et al., 1994, J. Phrmacol. Exp Ther. 268:1122–1127. A radioligand binding assay was performed using histamine H1 Central according to the method of Hill et al., 1978, J. Neurochem. 31:997–1004. […]
(§3) Quantitation Method: Radioligand Binding […]

Dopamine D2L = biological target: T2, Dopamine D2L (Homo sapiens, UniProt P14416); experiment: Radioligand binding assay, 3H Spiperone; conditions: 10 μM; significance criteria ≧50% of max stimulation or inhibition
T2 construct: expressed in transfected cells; host or cells: CHO cells
Experimental: as §1, §2, §3

Edg-2 = biological target: T3, Edg-2 (Homo sapiens, UniProt Q92633); experiment: Intracellular calcium assay, LPA-stimulated, HTC cells expressing Edg-2; format: cell-based; conditions: concentrations as high as 20 µM
T3 construct: expressed in transfected cells; host or cells: HTC rat hepatoma cells

human Edg-3 receptors = biological target: T4, human Edg-3 receptors (Homo sapiens, UniProt Q99500); experiment: Intracellular calcium (FLIPR) assay, S1P-stimulated, HTC cells expressing Edg-3; format: cell-based; conditions: HTC cells expressing human Edg-3 receptors; FIG. 1
T4 construct: expressed in transfected cells; host or cells: HTC rat hepatoma cells
From the text: Specific assays for Edg-3 receptor activity are known to those of skill in the art. For example, cells expressing Edg-3 receptors can be contacted with a membrane-permeant calcium sensitive dye such as Fluo-4 AM or a proprietary calcium dye loading kit (e.g., FLIPR Calcium Assay kit, Molecular Devices, Sunnyvale, Calif.). Intracellular calcium is capable of binding to the dye and emitting fluorescent radiation when illuminated at the appropriate wavelength. The cells can thus be illuminated an appropriate wavelength for the dye and any emitting light can be captured by a cooled CCD camera. Changes in fluorescence indicate changes in intracellular calcium resulting from the activation of an Edg-3 receptor. Such changes can be measured advantageously in whole cells in “real-time” (Berridge et al., Nature Reviews 2000, 1:11–21). […]
[…] such as Edg-3, couple to calcium effector pathways, and result in increases in intracellular calcium following receptor activation (An, 1998, J. Cell Biochem. Supp 30–31:147–157). This biological response lends itself to a very efficient, high-throughput screen using a Fluorescence Imaging Plate Reader (FLIPR; Molecular Devices, Sunnyvale, Calif.). The FLIPR system is a real-time, cell-based assay system with continuous fluorescence detection using a cooled CCD camera. […]

Endothelin ETA = biological target: T5, Endothelin ETA (Homo sapiens, UniProt P25101); experiment: Radioligand binding assay, 125I Endothelin; conditions: 10 μM; significance criteria ≧50% of max stimulation or inhibition
T5 construct: expressed in transfected cells; host or cells: CHO cells
T5 sequence (P25101 21-427): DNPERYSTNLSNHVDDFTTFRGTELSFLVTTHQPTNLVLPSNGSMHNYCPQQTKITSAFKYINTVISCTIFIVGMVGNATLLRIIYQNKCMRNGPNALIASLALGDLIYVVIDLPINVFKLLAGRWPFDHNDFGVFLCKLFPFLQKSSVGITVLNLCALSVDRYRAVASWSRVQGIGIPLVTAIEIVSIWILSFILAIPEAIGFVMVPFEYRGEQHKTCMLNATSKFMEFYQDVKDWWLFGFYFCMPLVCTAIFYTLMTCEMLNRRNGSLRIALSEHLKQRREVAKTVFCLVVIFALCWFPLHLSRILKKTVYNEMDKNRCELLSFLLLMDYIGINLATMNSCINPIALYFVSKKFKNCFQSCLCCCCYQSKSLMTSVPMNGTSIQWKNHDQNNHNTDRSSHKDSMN
Experimental: as §1, §2, §3

T4 sequence (Q99500 whole entry): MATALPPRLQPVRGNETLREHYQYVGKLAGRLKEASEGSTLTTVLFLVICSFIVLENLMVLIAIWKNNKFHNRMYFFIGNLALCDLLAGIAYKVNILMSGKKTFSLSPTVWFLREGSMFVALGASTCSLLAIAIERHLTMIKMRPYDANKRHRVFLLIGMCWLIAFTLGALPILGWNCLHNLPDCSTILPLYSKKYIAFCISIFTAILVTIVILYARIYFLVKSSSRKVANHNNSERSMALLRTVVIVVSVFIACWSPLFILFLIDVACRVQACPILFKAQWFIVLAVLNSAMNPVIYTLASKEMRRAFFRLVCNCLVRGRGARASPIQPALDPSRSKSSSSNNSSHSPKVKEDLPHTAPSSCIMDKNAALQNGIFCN
T2 sequence (P14416 whole entry): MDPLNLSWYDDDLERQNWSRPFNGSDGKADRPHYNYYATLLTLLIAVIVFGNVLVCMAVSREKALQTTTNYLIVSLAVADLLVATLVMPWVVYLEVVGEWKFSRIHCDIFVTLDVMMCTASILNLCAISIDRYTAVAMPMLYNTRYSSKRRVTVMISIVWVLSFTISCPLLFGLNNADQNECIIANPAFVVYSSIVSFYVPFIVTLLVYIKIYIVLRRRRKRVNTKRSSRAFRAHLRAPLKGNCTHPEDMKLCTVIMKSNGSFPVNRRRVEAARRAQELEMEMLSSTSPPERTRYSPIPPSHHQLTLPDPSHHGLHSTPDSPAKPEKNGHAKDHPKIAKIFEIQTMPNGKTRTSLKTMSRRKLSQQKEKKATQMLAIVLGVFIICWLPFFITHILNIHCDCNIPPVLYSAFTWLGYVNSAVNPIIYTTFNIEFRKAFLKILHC
T1 sequence (Q9H228 whole entry): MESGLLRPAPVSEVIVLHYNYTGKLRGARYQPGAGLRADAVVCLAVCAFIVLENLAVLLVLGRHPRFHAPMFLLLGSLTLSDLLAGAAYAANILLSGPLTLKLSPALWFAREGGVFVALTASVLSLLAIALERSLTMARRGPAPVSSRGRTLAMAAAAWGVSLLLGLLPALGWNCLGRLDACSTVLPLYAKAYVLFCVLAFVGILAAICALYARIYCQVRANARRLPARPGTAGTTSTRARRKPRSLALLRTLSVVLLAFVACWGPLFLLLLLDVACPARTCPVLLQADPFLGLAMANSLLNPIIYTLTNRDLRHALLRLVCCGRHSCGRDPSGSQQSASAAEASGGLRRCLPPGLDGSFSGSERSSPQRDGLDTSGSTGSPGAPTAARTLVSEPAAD
T3 sequence (Q92633 whole entry): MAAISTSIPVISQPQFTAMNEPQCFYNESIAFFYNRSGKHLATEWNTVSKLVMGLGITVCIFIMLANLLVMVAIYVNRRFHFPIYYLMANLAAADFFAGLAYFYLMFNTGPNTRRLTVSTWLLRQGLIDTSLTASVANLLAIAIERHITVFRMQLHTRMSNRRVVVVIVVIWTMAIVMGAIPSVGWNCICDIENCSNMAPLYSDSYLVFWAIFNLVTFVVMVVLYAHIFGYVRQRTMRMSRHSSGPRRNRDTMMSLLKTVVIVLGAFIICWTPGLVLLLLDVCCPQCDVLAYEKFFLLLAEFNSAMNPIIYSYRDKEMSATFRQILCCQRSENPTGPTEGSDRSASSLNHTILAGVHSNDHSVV

Structure (SMILES): Cc1c(-c2ccccc2)nc2ccccc2c1C(=O)NCc1ccc(F)cc1 [Compound 101, 3-methyl-2-phenyl-quinoline-4-carboxylic acid 4-fluoro-benzylamide]
- inhibition of S1P-stimulated calcium increases, Edg-8 (Edg-8): did not inhibit
- activity in standard binding assay, Adrenergic β (Adrenergic β): no activity
- activity in standard binding assay, Dopamine D2L (Dopamine D2L): no activity
- inhibition of LPA-stimulated calcium increases, Edg-2 (Edg-2): did not inhibit
- inhibition of Edg-3 stimulated S1P responses (Edg-3 receptors) (human Edg-3 receptors): demonstrate inhibition; also recorded: specifically inhibited
- activity in standard binding assay, Endothelin ETA (Endothelin ETA): no activity
